Consider 3 compounds from patent US9642832B2, “Use of atractylenolide compound or its derivatives and a medicament for inhibiting platelet aggregation” (No. 3 People Hospital Affiliated to Shanghai Jiaotong …, priority 2014, dated 2017).

Common to all, as to assay type: cell-based, human
Assay [1] concerns platelets. The experiment in a line: Platelet spreading test on fibrin, phalloidin staining. Conditions: platelets 3×10^7/mL, compound 1, 5, 10 μM, incubated 3 mins, spread on fibrin (40 μg/mL), 100× oil immersion lens. As to the method:
(1) Preparation of platelets: use the same method as abovementioned to prepare platelets counting 3×10^7/mL.
The compound is incubated in platelets for 3 mins. The platelets treated by the drug are spread on fibrin (40 μg/mL). After Staining by the fluorescent antibody phalloidin, the spreading of platelets are observed under the 100× oil immersion lens.
(2) Concentration gradient of compound atractylenolide III; final concentrations of the compound in 100 uL platelets are respectively 1 μM, 5 μM, 10 μM. The compound is incubated in platelets for 3 mins. The platelets treated by the drug are spread on fibrin (40 μg/mL). After staining by the fluorescent antibody phalloidin, the spreading of platelets is observed under the 100× oil immersion lens.

Another assay relates to Akt molecule. The experiment in a line: Western blotting test on phosphorylation levels of related molecules in platelets. The note with it: platelet protein samples collected after the aggregation test.
The test system of assay [2] is platelets. The experiment in a line: Platelet aggregation test, thrombin as stimulant. The note with it: for in vitro platelet aggregation inhibition, comparative experiment: under the stimulus of thrombin; for platelet aggregation inhibition: human platelets 3×10^8/mL, compound 0.1, 0.5, 1, 5, 10 μM, incubated 3 mins, thrombin stimulant.
Description: (1) Preparation of platelets: human blood plasma with high concentration of platelets is used to prepare platelets counting 3×10^8/mL, which are placed in a water bath of 37° C.
The compound is incubated in platelets for 3 mins before the experiment, and resting and DMSO are included in the experiment as control groups. Thrombin is used as stimulant. The aggregation curve and aggregation rate are obtained by the platelet aggregation test instrument.
(1) Preparation of platelets: use the same method as abovementioned to prepare platelets counting 3×10^8/mL.
(2) Acetylsalicylic acid is dissolved in anhydrous ethanol, and diluted into a concentration of 50 mmol/L, it is then stimulated with the thrombin stimulant to observe the platelet aggregation.
(2) Acetylsalicylic acid is dissolved in anhydrous ethanol, and diluted into a concentration of 50 mmol/L, it is stimulated with the thrombin stimulant to observe the platelet aggregation.

Excerpt for Akt molecule: After acquiring the aggregation curve in Example 1, platelet protein samples (2×SDS loading protein lysis buffer) are collected, and tested by Western blotting for phosphorylation levels of related molecules.
Testing the phosphorylation levels of related molecules in the signal pathway using Western blotting, when the PI3K/Akt signal pathway is activated, the Akt molecule is activated via phosphorylation, which leads to the activation of downstream enzymes, kinases, transcription factors (e.g. GSK3), etc.
After acquiring the aggregation curve in Example 2, platelet protein samples (2×SDS loading protein lysis buffer) are collected, and tested by Western blotting for phosphorylation levels of related molecules.

Consider `C=C1CCC[C@]2(C)C[C@]3(O)OC(=O)C(C)=C3C[C@@H]12` [atractylenolide III], for which the “effect on platelet spreading” value in the assay with platelets [1] is reported as “has an influence on platelet spreading”. Moreover, the “phosphorylation level of the Akt molecule” value in the assay on Akt molecule is “affects the phosphorylation level of the Akt molecule”. The “in vitro platelet aggregation inhibition, comparative experiment” value (shortened to “in vitro platelet aggregation inhibition”) in the assay with platelets [2] (10 μM) is given as “has the effect of inhibiting platelet aggregation”. Moreover, in the assay on platelets [2], the platelet aggregation inhibition entry is “has an effect of inhibiting platelet aggregation”.
Consider `CC(=O)Oc1ccccc1C(=O)O` [acetylsalicylic acid, reference compound], for which, in the assay on platelets [2] (150 μM), the “in vitro platelet aggregation inhibition” value is “does not show the inhibitory effect”.
As to atractylenolide II, in the assay with platelets [1], the “effect on platelet spreading” value is reported as “has an influence on platelet spreading”. The “in vitro platelet aggregation inhibition” value in the assay with platelets [2] (10 μM) is listed as “has the effect of inhibiting platelet aggregation”. Moreover, the platelet aggregation inhibition result with platelets [2] is “has an effect of inhibiting platelet aggregation”.
